The text below walks through data of patent publication US12303594B2, “Antimicrobial and anti-inflammatory compositions” (The Texas A&M University System, priority 2015, dated 2025).

By MIC is commonly meant the lowest concentration found to suppress growth.

The test system of data set [1] is P. aeruginosa strain PA HP3. The experiment in a line: Disc diffusion assay. In kind it is cell-based, Pseudomonas aeruginosa. The settings on record: MH agar with 100 μg/mL ibuprofen vs MH agar control. On the procedure: A method for disc diffusion assay includes the following: The activity of five antibiotics (amikacin, aztreonam, ceftazidime, colistin, and tobramycin) was assessed against three strains of Pseudomonas aeruginosa (PAM57-15, PAO1 and PA HP3) using a disc diffusion assay. A single colony of P. aeruginosa was picked and grown to an optical density at 650 nm (OD650) of 0.4. […] Discs containing known quantities of the five previously mentioned antibiotics were placed on the two types of agar plates and incubated for 18 hours. The diameters of the zones of inhibition were measured and compared between the MH and MH+IBU plates.
(In agar diffusion tests the substance spreads into inoculated agar from a disc or well.)

Data set [2] has as its system Pseudomonas aeruginosa (strain PA HP3). The experiment in a line: Minimum inhibitory concentration (MIC). Format: cell-based. The settings on record: alone. On the procedure: (§1) The final concentrations of aztreonam, ceftazidime and vancomycin were 0.06, 0.13, 0.25, 0.5, 1, 2, 4, 8, 16, 32, 64, and 128 μg/ml. The plates were incubated overnight at 37° C. […] Each triplicate was performed at least twice.

Data set [3] shares this test system. The experiment in a line: Checkerboard assay with ibuprofen. Format: cell-based. The settings on record: for MIC: Pseudomonas aeruginosa, read-out: MIC (with ibuprofen); for MIC (with ibuprofen): with 50 μg/mL of ibuprofen.
The test system of a further data set is PA HP3. The experiment in a line: 24 hour end point colony forming units (CFU) count study. In kind it is cell-based, Pseudomonas aeruginosa. The conditions noted are these: P<0.0001. On the procedure: A 24 hour end point colony forming units (CFU) count study was performed. […] Increasing concentrations of aztreonam and ceftazidime were loaded horizontally into each well of two separate 96-well plates starting with zero at the top of the plate. […] The plates were set on a platform shaker at 100 rpm in a 37° C. warm room for 24 hours. After the 24-hour incubation, each well was diluted by taking 50 μl culture into 450 μl of MH broth. A 50 μl aliquot of each dilution was plated on blood agar. This serial dilution step was repeated seven times for each well to reach countable numbers of colonies on the blood agar plates.

Data set [4] is described as follows: Particle size distribution by laser light diffraction. In kind it is physicochemical. On the procedure:
The particle size distribution (PSD) D10, D50, and D90 values for each sample were defined as particle diameters at the 10th, 50th, and 90th percentile and the span value was calculated according to Equation 2: […]
PSD analysis by laser light diffraction: PSDs were determined using a Sympatec Helos equipped with a Cuvette module (System-Partikel-Technik GmbH, Clausthal-Zellerfeld, Germany). Data were analyzed using the Sympatec WINDOX software. For each measurement, per a previously optimized method, about 2 mg of powder was dispersed in 0.5 mL of 0.1% (w/v) sodium dodecyl sulfate in water and the sample was sonicated for 5 min. […] After the reference measurement, 50 μL aliquots of the sonicated suspension were added to the cell to achieve optical concentrations of between 10 to 20% and the total of six measurements were performed on each sample. Formulations immediately following air-jet milling (25IBU10.1, 25IBU10.2) and after 6 months (25IBU10.1**, 25IBU10.2**) stored at RT (IBU10.1), or at −80° C. (IBU10.2) were analyzed.
PSDs were determined using a Sympatec Helos equipped with a Cuvette module (System-Partikel-Technik GmbH, Clausthal-Zellerfeld, Germany). Data were analyzed using the Sympatec WINDOX software. For each measurement per a previously optimized method, about 2 mg of powder was dispersed in 0.5 mL of 0.1% (w/v) SLS in water and the sample was sonicated for 5 minutes. […] After the reference measurement, 50 μL aliquots of the sonicated suspension were added to the cell to achieve optical concentrations of between 10 to 20% and the total of six measurements were performed on each sample. Analyzed samples included: unprocessed IBU and IND as well as the milled samples from different sections of the jet mill including the tube after grinding chamber (bfC), the cyclone (C), the collection vessel adapter (D), the collection bag adapter (E), the collection vessel (G) and the collection bag (H) for each run. The span value was calculated according to Equation 2.
To estimate the overall D10, D50, and D90 values for the combined recovered fractions associated with each run, stacked bar charts were graphed and analyzed to determine the yield normalized cumulative PSDs. Each stacked bar corresponded to a particle size bin and its height corresponded to the volume density distributions' weighted averages by the yield for each segment of the jet mill. The D10, D50, and D90 values for the normalized cumulative PSDs were the particle sizes corresponding to the 10, 50, and 90% area of the stacked bar chart respectively.
Tween 20 and sodium lauryl sulfate (SLS) were purchased from Fisher Scientific (Fisher Scientific, Pittsburgh, PA, USA), and dH2O was used for preparing solutions. […] A reference measurement was done in 0.1% (v/v) Span 85 in light mineral oil. After a reference measurement, aliquots of […] of sonicated suspension were added to achieve optical concentrations from 10 to 20% for a total of six measurements.
Furthermore, D10, D50, and D90 values for each sample were defined as particle diameters at the 10th, 50th, and 90th percentile of the PSD. Span was calculated according to Equation 2. Normalized cumulative PSDs were composed of yield-normalized distributions, where they were depicted as stacked bar charts. D10, D50, and D90 values for normalized cumulative PSDs were calculated by approximating particle sizes associated with 10%, 50%, and 90% area of the stacked bar chart.

Data set [5] can be described thus: Brunauer-Emmett-Teller specific surface area. In kind it is physicochemical. The settings on record: for SSA: N = 3. On the procedure:
Brunauer-Emmett-Teller: Surface area (SA) was evaluated via a single-point BET method using a Monosorb® surface area analyzer (Quantrachrome Instruments; FL, USA) following 24 hour outgassing with helium at room temperature (RT) before each measurement in triplicate on a known powder mass (m). SSA was calculated using Equation 3: […]
Brunauer-Emmett-Teller (BET) specific surface area (SSA) measurements were taken. Surface area (SA) was evaluated via a single-point BET method using a Monosorb® surface area analyzer (Quantrachrome Instruments; FL, USA) following 24 hour outgassing with helium at room temperature before each measurement in triplicates. Samples masses (m) were at least 50 mg for the jet-milled powders depending on availability and 500 mg for the unprocessed samples. SSA was calculated according to the following formula: […]

Data set [6] in a line: Helium pycnometry true density. Format: physicochemical. The conditions noted are these: N = 3. On the procedure: Helium pycnometry: True densities were measured using an MVP-D160-E multipycnometer (Quantrachrome Instruments; FL, USA) equipped with the micro cell and adapter. Measurements were conducted in triplicates. Before pressure measurements, the multipycnometer was purged with helium gas according to the manufacturer's recommendations.
True densities were measured using a MVP-D160-E multipycnometer (Quantrachrome Instruments; FL, USA). For density measurements, the micro cell and the micro cell adapter were used, and samples weighed at least 0.1 g for the jet-milled powders depending on availability and at least 0.6 g for the unprocessed powders.

Data set [7] can be described thus: Bulk and tapped density, compressibility index and Hausner ratio. Format: physicochemical. On the procedure:
In this modified method, a 10 mL graduated cylinder fitted with a molded adapter substituted the 100 mL graduated cylinder in the tapped density tester. The compressibility index (CI) and Hausner ratio (HR) calculations were performed according to the following formulas: The tapped density (rT) calculations were performed using a tapped density tester (Agilent Technologies, Santa Clara, CA, USA) with a modified method from the USP for a small mass of powder. In this modified method, a 10 mL graduated cylinder fitted with a molded adapter substituted the 100 mL graduated cylinder for the calculations of the bulk density (rB) and the use in the tapped density tester. The compressibility index (CI) and the Hausner ratio (HR) calculations were performed according to the following formulas: […]

Data set [8] is described as follows: Angle of repose (USP method). In kind it is physicochemical. The conditions noted are these: N = 3. On the procedure: Angle of repose: Angles of repose were measured in triplicate according to the United States Pharmacopoeia (USP) method. Images of the powder mounds were taken using a digital camera and were analyzed using the ImageJ software (Wayne Rasband, Research Services Branch, National Institute of Mental Health, Bethesda, MD, USA). […]

Data set [9] is described as follows: Karl-Fischer moisture analysis. In kind it is physicochemical. The settings on record: N = 3. On the procedure: Karl-Fischer moisture analysis was performed. The moisture content of the unprocessed and jet-milled powders were measured in triplicates using a Photovolt Aqua-test™ 2010a Moisture Analyser (a.k.a. The CSC Aquapal III, CSC Scientific Inc., Fairfax, VA, USA). Powder moisture contents were calculated by subtracting the moisture content in 1 mL of anhydrous methanol (Fisher Scientific, Pittsburgh, PA, USA) from the moisture content reading from 5 mg powder dissolved in 1 mL of anhydrous methanol.

Data set [10] concerns methicillin-resistant Staphylococcus aureus (strain MRSA 0646). The experiment in a line: Minimum inhibitory concentration (MIC). In kind it is cell-based. On the procedure: as §1
The test system is the same in data set [11]. The experiment in a line: Checkerboard assay with ibuprofen.
Experimental: A method for checkerboard assay includes the following: The bacteria were diluted in the standard MH broth to a concentration of 5×10^5 in 100 μL, which was added to each well of a 96-well plate. Aztreonam, ceftazidime and vancomycin solutions were prepared from 10 mg/mL stocks in MH broth. […] The plates were incubated and read as noted for the MIC assay. Again, each triplicate was performed at least twice.
Interaction are defined as synergistic if the FIC index is <1, additive if the FIC index is =1 and antagonistic if the FIC index is >1.
[12] abbreviates: collection bag from jet-milled DFNa, cyclone from jet-milled DF.
[13] abbreviates: normalized cumulative particle size distribution of jet-milled powder.
[14] abbreviates: collection bag fraction or stock, Table 8.
Where [15] appears, read: fraction used for testing (IBU collection bag, IND cyclone) or unprocessed powder.

Structures are written as SMILES. Values after ≈ are worked out from the molar mass of the structure shown.

For the compound `C[C@H]1[C@H](NC(=O)/C(=N\OC(C)(C)C(=O)O)c2csc(N)n2)C(=O)N1S(=O)(=O)O` [Aztreonam, aztreonam], the “diameters of the zones of inhibition” value in data set [1] is recorded as “significantly increased”. Moreover, the minimum inhibitory concentration (MIC) in [2] stood at 4 µg/mL (≈ 9.19 µM). Also, in [3], the MIC stood at 2 µg/mL and the “MIC (with ibuprofen)” value was 2 (50) μg/mL. Moreover, the CFU counts result in the data set with PA HP3 (1 μg/mL aztreonam with 50 or 100 μg/mL ibuprofen vs aztreonam alone) was “decreased significantly”.

In the case of `CC(C)(O/N=C(\C(=O)N[C@@H]1C(=O)N2C(C(=O)[O-])=C(C[n+]3ccccc3)CS[C@H]12)c1csc(N)n1)C(=O)O` [Ceftazidime, ceftazidime], the “diameters of the zones of inhibition” value in data set [1] is “significantly increased”. In data set [2], this compound had an MIC of 16 µg/mL (≈ 29.3 µM). In data set [3], the minimum inhibitory concentration (MIC) came out at 4 µg/mL and the “MIC (with ibuprofen)” value was 4 (50) μg/mL. Further, the CFU counts entry in the data set on PA HP3 (2 or 4 μg/mL ceftazidime with 50 or 100 μg/mL ibuprofen vs ceftazidime alone) was “decreased significantly”.

In [4] (setting [12]), `O=C(O)Cc1ccccc1Nc1c(Cl)cccc1Cl` [DF, diclofenac] registered a D10 of 1.31 μm, a D90 of 4.73 μm and a Span of 1.31. In data set [4] (setting [13]), this compound gave a D10 of 1.16 μm, a D90 of 4.48 μm and a Span of 1.41. Further, in data set [4] (unprocessed), the D10 is 2.00 μm, the D90 is 17.34 μm and the Span was found to be 2.20. The compound further came in with an SSA in data set [5] of 1.73 ± 0.18 m^2/g. The “ρ (true density)” value in data set [6] stood at 1.48 ± 0.01 g/mL. For the same compound, in data set [7], the CI was 46.67, the HR stood at 1.88, the “ρT (tapped density)” value stood at 0.30 g/mL and the “ρβ (bulk density)” value was found to be 0.16 g/mL. The “Angle of Repose” value in [8] came to 34.5 ± 2.3 °. In [9], this compound showed a Moisture content of 0.78 ± 0.18%.

Consider `O=C(O)Cc1ccccc1Nc1c(Cl)cccc1Cl` [DFNa, diclofenac sodium], for which, in data set [4] (setting [12]), the D10 was found to be 1.06 μm, the D90 was determined as 5.52 μm and the Span worked out at 1.64. Besides, in data set [4] (setting [13]), the D10 is listed as 1.29 μm, the D90 came out at 6.53 μm and the Span stood at 1.61. Also, in [4] (unprocessed), the D10 turned out to be 2.02 μm, the D90 is recorded as 42.69 μm and the Span turned out to be 2.08. For the same compound, the SSA in data set [5] was determined as 1.37 ± 0.20 m^2/g. The “ρ (true density)” value in data set [6] is 1.51 ± 0.00 g/mL. Further, in data set [7], the CI was 45.24, the HR is reported as 1.83, the “ρT (tapped density)” value is 0.69 g/mL and the “ρβ (bulk density)” value was 0.38 g/mL. In [8], the “Angle of Repose” value came out at 48.7 ± 5.5 °. Moreover, in [9], the Moisture content came out at 1.88 ± 0.20%.

As to `CN[C@H](CC(C)C)C(=O)N[C@H]1C(=O)N[C@@H](CC(N)=O)C(=O)N[C@H]2C(=O)N[C@H]3C(=O)N[C@H](C(=O)N[C@H](C(=O)O)c4cc(O)cc(O)c4-c4cc3ccc4O)[C@H](O)c3ccc(c(Cl)c3)Oc3cc2cc(c3O[C@@H]2O[C@H](CO)[C@@H](O)[C@H](O)[C@H]2O[C@H]2C[C@](C)(N)[C@H](O)[C@H](C)O2)Oc2ccc(cc2Cl)[C@H]1O` [Vancomycin, vancomycin], the MIC came to 2 µg/mL (≈ 1.38 µM) in data set [10] and 1 µg/mL in data set [11] (Staphylococcus aureus, MRSA, read-out: MIC (with ibuprofen)). Moreover, in data set [11] (combination with ibuprofen, <1 synergistic), the FIC index is on record as less than 1. The “MIC (with ibuprofen)” value in data set [11] (with 50 μg/mL of ibuprofen) was 1 (50) μg/mL.

In [4] (setting [14]), `COc1ccc2c(c1)c(CC(=O)O)c(C)n2C(=O)c1ccc(Cl)cc1` [unprocessed indomethacin, indomethacin] had a D50 of 26.3 μm, a D90 of 64.8 μm and a Span of 2.3. Moreover, in data set [4] (setting [15]), the Span turned out to be 2.25 and the “median size (d50)” value is reported as 26.3 μm. In data set [5], this compound gave a surface area of 0.435±0.039 m^2/g. Further, in data set [7], the “Compressibility Index (CI)” value came out at 44.7, the “Hausner Ratio (HR)” value was 1.81, the bulk density turned out to be 0.321 g/mL and the tap density was found to be 0.580 g/mL.
